# Test system: Plasmodium falciparum
# Assay: GSK_TCMDC: Inhibition of Plasmodium falciparum 3D7 in whole erythrocytes, using parasite LDH activity as an index of growth.
# Format: functional, organism-based
# Settings: Plasmodium falciparum, 3D7
row,SMILES,XC50 [nM]
1,CCN(CC)CCN(Cc1ccc(-c2ccc(C(F)(F)F)cc2)cc1)C(=O)Cn1c(CCc2cc(F)ccc2F)nc(=O)c2ccccc21,828
2,Cc1[nH]c2ccc(O)cc2c1C1CCN(CCCCCNC(=O)/C=C/c2ccc(Cl)c(Cl)c2)CC1,771
3,Cc1ccc(OCC2CCN(c3ncc(C(=O)NCCCN4CCCC4=O)cc3Cl)CC2)cc1,1260
4,Cc1cccc2nc(-c3ccc(-c4cccc(NC(=O)C(C)CN5CCN(C)CC5)c4)cc3)[nH]c12 (stereo unspecified),739
5,O=C(Nc1cccc(-c2csc(-c3nc4ccccc4[nH]3)c2)c1)c1ccoc1,211
6,CN1CCC(N(Cc2ccc(N3CCN(Cc4c[nH]c5ccc(Cl)cc45)CC3)nc2)C2CC2)CC1,999
7,O=C(NC1CCN(Cc2cccc(C(F)(F)F)c2)CC1)c1ccc(-c2cccc(Cl)c2)s1,1130
8,Cn1nccc1C(=O)NCCNCc1cccc(-c2ccc(-c3nc4ccccc4[nH]3)s2)c1,303
9,Cc1ccc(NC(=O)c2ccc(-c3cc4cc(Cl)c(Cl)cc4[nH]3)cc2)cc1OCCN1CCCC1,991
10,Clc1ccc2nccc(N3CCC(CN4CCC(c5c[nH]c6ccccc56)CC4)CC3)c2c1,33.9
11,COc1ccc(Cl)cc1N1CCN(CCCNC(=O)c2ccc(-c3nc4cc(Cl)c(F)cc4[nH]3)c(F)c2)CC1,1110
12,O=C(NCCc1ccccc1)N(Cc1cccc(-c2ccc(CNCCc3ccccc3)cc2)c1)C1CCN(Cc2ccccc2)CC1,613
13,c1ccc(CCNCc2ccc(-c3ccc(CNCc4ccc5c(c4)OCO5)cc3)nc2)cc1,1250
14,c1cncc(Oc2ccc(Nc3ccnc4cc(-c5cccc(CNCCN6CCOCC6)c5)ccc34)cc2)c1,112
15,Cc1csc2nc(-c3ccccn3)nc(Nc3ccc4ncsc4c3)c12,1110
16,Cc1ccc(NC(=O)c2ccc(Cl)c(Cl)c2)cc1-c1ccc(C(=O)Nc2ccncc2)cc1,567
17,COc1ccc2ncc(F)c(CCN3CC(O)C(CNCc4ccc5oc(=O)ccc5c4)C3)c2n1 (stereo unspecified),949
18,COc1ccc2nccc([C@@H](O)CN3CCC(NCc4cc5ccccc5[nH]4)CC3)c2n1,628
19,O=C(Nc1cccc(-c2cc3ccccc3[nH]2)c1)C1CCN(Cc2ccccc2O)CC1,938
20,CN(c1ccc(NC(=O)c2ccc(F)cc2)cc1)C1CCN(Cc2cccc(F)c2)C1 (stereo unspecified),1410
21,C=CCN1CCC(N(Cc2cccc(Oc3ccccc3)c2)C(=O)C(c2ccccc2)c2ccccc2)CC1,1140
22,Cc1nc(C)c(-c2ccc(-c3ccc(F)cc3)cc2)c(O)c1Br,1070
23,N#CN1CC[C@H](CS(=O)(=O)c2cccc(Br)c2)C1,874
24,CC(C)NCc1ccc(-c2ccc(-c3nc4cc(C(F)(F)F)ccc4[nH]3)s2)cc1,181

row,SMILES,XC50 [nM]
1,Cc1cc(NCC(c2ccccc2)c2ccccc2)nc(NCC2CCCCC2)n1,507
2,O=C(Nc1cccc(CN2CCN(C(=O)c3cccc(F)c3)CC2)c1)c1ccco1,775
3,COc1cc(C(=O)N2CCC(CCN3CCC4(CC3)CN(S(C)(=O)=O)c3ccccc34)CC2Cc2ccc(Cl)c(Cl)c2)cc(OC)c1OC (stereo unspecified),843
4,O=C(Nc1ccc(Oc2ccccc2)cc1)NC1CCC(CN2CCC(c3c[nH]c4ccccc34)CC2)CC1 (stereo unspecified),573
5,Cc1nc(NC2=NCN(CCCN3CCOCC3)CN2)nc2c(C)cccc12,1130
6,Cc1cc(C)c(CON2C(=N)N=C(N)NC2(C)C)cc1C,3.63
7,COc1cc(C)ccc1N1CCN(CCCCNC(=O)c2ccc(NC(=O)c3ccc(Cl)cc3)cc2)CC1,700
8,O=C(Cc1c[nH]cn1)Nc1cccc(-c2ccc(-c3nc4cc(F)ccc4[nH]3)cc2)c1,806
9,CN1CCN(Cc2cccc(Nc3nccc(Nc4ccc(Oc5ccccc5)cc4)n3)c2)CC1,296
10,COCCN1CCN(Cc2ccc(-c3cccc(-c4nc5ccccc5[nH]4)c3)cc2)CC1,1110
11,CCSc1ccc(C)cc1CON1C(N)=NC(N)=NC1(C)C,3.2
12,CCN1CCN(c2ccc(Nc3ccnc4ccc(Br)cc34)cc2)CC1,300
13,CC(C)CC(NC(=O)c1cc2ccccc2s1)C(=O)N1CCCCCC1c1ccc(C(C)(C)C)cc1 (stereo unspecified),857
14,N[C@@H](CCNC1CCN(c2cccc(C(F)(F)F)c2)CC1)Cc1ccc(F)c(F)c1,1290
15,Cn1cncc1C(=O)Nc1cccc(-c2ccc(-c3nc4ccccc4[nH]3)s2)c1,796
16,CN1CCN(Cc2cccc(-c3ccc4c(Nc5ccc(Oc6cccnc6)cc5)ccnc4c3)c2)CC1,192
17,Cc1cc(=O)c(-c2ccc(Oc3ccc(Cl)cc3Cl)cc2)c(C)[nH]1,841
18,N=C(NCCCCCCNC(=N)NC(=N)c1ccc(Cl)cc1)NC(=N)c1ccc(Cl)cc1,212
19,O=C(Nc1cc(C(F)(F)F)ccc1-n1cncn1)C1(c2ccccc2)CC1,60.1
20,N#Cc1ccc(-c2ccc(C(=O)NCCCCN3CCC(c4ccc5c(c4OCc4ccncc4)CCCC5)CC3)cc2)cc1,757
21,COc1ccc(CC(C)NCC(O)c2cccc(Cl)c2F)cc1 (stereo unspecified),1080
22,CCCOc1c(CCNCCCCNCCc2ccc3ccccc3c2OCCC)ccc2ccccc12,482
23,CCCc1cc(Cc2cnc(N)nc2N)cc(CCC)c1OCCCCC(=O)OCC,54.1
24,Cc1ccccc1C1CCN(C2CCC(NC(=O)/C=C/c3cccc(C(F)(F)F)c3)CC2)CC1 (stereo unspecified),1520

row,SMILES,XC50 [nM]
1,COc1cc(OC)cc(C(=O)N2CCOC(CCN3CCC(c4ccccc4)CC3)(c3ccc(Cl)c(Cl)c3)C2)c1 (stereo unspecified),442
2,CC(C)(C)c1ccc(NC(=O)c2ccc(CN3CCCN(Cc4ccc(F)cc4)CC3)cc2)cc1,1110
3,Brc1ccc(Nc2nc3ccccc3nc2Nc2ccc(Br)cc2)cc1,783
4,NC1CCN(Cc2cccc(-c3ccc(-c4nc5cc(F)ccc5[nH]4)cc3)c2)C1 (stereo unspecified),596
5,CC1(C)N=C(N)N=C(N)C1c1ccc(Cl)cc1 (stereo unspecified),259
6,COc1ccc2nccc([C@@H](O)CN3CCC(NC(=O)/C=C/c4cccc(C)c4)CC3)c2c1,1250
7,COc1ccc(C=C2SC(=O)N=C2Nc2ccccc2)c(OC)c1,470
8,COc1ccc(CCNC(=O)c2cc(C)ccc2O)cc1-c1ccc(C(C)(C)C)cc1,482
9,COc1cc(CNC[C@@H](O)[C@H](Cc2ccccc2)NC(=O)c2cc(C3CCCC3)cc(N3CCCC3=O)c2)cc(OC)c1,224
10,COc1ccc2nccc([C@@H](O)CN3CCC(NC(=O)/C=C/c4ccc5ccccc5n4)CC3)c2c1,993
11,Cc1ccc(-n2nc3ccc(NC(=O)c4ccc([N+](=O)[O-])o4)cc3n2)cc1C,397
12,NC(=O)c1ccc(NCC(=O)Nc2cccc(-c3cccc(-c4nc5cc(C(F)(F)F)ccc5[nH]4)c3)c2)cc1,270
13,Cc1ccccc1C1CCN(c2ccc(C(=O)Nc3ccccc3)cn2)CC1,327
14,CCOc1cc(C)ccc1C1CCN(CCCCNC(=O)c2nc(-c3ccc(C(F)(F)F)cc3)[nH]c2C)CC1,729
15,COCCNCc1cccc(-c2ccc(CNC3CCN(Cc4ccccc4)CC3)cc2)c1,508
16,O=C(NCCCNc1ccnc2cc(Cl)ccc12)c1ccccc1F,315
17,COc1ccc2nc3cc(Cl)ccc3c(NCc3ccccc3)c2c1,866
18,O=C(C=Cc1ccc(Cl)c(Cl)c1)NCCCCCN1CCC(CCCNS(=O)(=O)c2ccc(Br)cc2)CC1,1130
19,CN(C)CCOc1ccc2c(c1)OC(C)(C)C=C2c1cccc2ccccc12,785
20,c1cc(CN2CCC(CCN3CCCCC3)CC2)cc(-c2cccc(-c3nc4ccccc4[nH]3)c2)c1,140
21,CCCc1cc(=O)[nH]c(-n2nc(C)cc2NC(=O)CC(c2ccccc2)c2ccccc2)n1,618
22,CC(C)(C)OC(=O)NCc1ccc(Nc2nnc(-c3ccc(OCC(=O)NCc4cc(C(F)(F)F)cc(C(F)(F)F)c4)c([N+](=O)[O-])c3)o2)cc1,460
23,Cc1ccc(NC(C)C(=O)Nc2ccccc2)cc1S(=O)(=O)N1CCCCCC1 (stereo unspecified),62.4
24,Oc1ccc(CCNc2nc(NCCCOc3cccc(-c4ccccc4)c3)nc(N3CCNCC3)n2)cc1,1130

row,SMILES,XC50 [nM]
1,CN(C)CCNc1cc(-c2cccnc2)nc(-c2ccncc2)n1,596
2,COc1ccc(-c2cccc(NC(=O)c3ccc(C#N)cc3)c2)cc1CN1CCCC1,696
3,N#Cc1ccc(NC(=O)c2ccc(Cc3ccc4c(c3)CCN(C3CCC3)CC4)cn2)cc1,1120
4,Nc1nc(N)c2c(ccc3c2ccn3CCCC(F)(F)F)n1,98
5,Cc1c(C(=O)C2CC2CN2CCC(N3CCCCC3)CC2)sc2ccccc12 (stereo unspecified),1020
6,COc1ccc(-c2nonc2NC(=O)c2cccc(Cl)c2)cc1OC,876
7,Oc1ccc2ccccc2c1C=NNc1nc(=Nc2ccccc2)[nH]c(=Nc2ccccc2)[nH]1,667
8,Cc1cc(NC(=O)c2ccc(-c3ccccc3)cc2)no1,1020
9,CCCOc1ccc(C(=O)Nc2nonc2-c2ccc(OC)c(OC)c2)cc1,991
10,CC(C)=CC1C(C(=O)n2c(=N)[nH]c3ccccc32)C1(C)C (stereo unspecified),193
11,O=C(NCc1ccc(S(=O)(=O)N2CCC(CN3CCC(c4c[nH]c5ccccc45)CC3)CC2)s1)c1ccccc1,843
12,CNC(=O)C1Cc2c([nH]c3cc(Cl)ccc23)C2(CCN(CCc3ccccc3)CC2)N1 (stereo unspecified),934
13,O=C(Nc1ccc2c(c1)CCC2)c1cccc(CN2CCCN(Cc3cccc(O)c3)CC2)c1,1080
14,CCn1ncc2c(N3CCCC3=O)cc(C(=O)N[C@@H](Cc3ccccc3)[C@H](O)CNC(C)(C)c3cccc(OC)c3)cc21,107
15,N=C1N=C(N)NC2(CCCCC2)N1OCCOc1ccc(Cc2ccccc2)cc1,1130
16,COc1cc(F)c2ncc(Cl)c(CCN3CCC(NCc4ccc5c(c4)NC(=O)CS5)CC3)c2c1,313
17,O=C(CC1SC(N2N=C(c3cccs3)CC2c2ccccc2)=NC1=O)Nc1ccccc1F (stereo unspecified),1090
18,CNC(=O)Cc1ccc(C(=O)Nc2cccc(-c3csc(-c4nc5ccccc5[nH]4)c3)c2)cc1,273
19,COc1ccc(C(=O)C2CCN(CCCCNC(=O)c3ccc(NC(=O)c4cc(Cl)cc(Cl)c4)cc3)CC2)cc1,173
20,CC(C)Nc1nc(NCCc2c[nH]cn2)nc(NCc2cccc3ccccc23)n1,1010
21,CC(=O)c1ccc(S(=O)(=O)N2CCC(C(=O)Nc3ccccc3N3CCCC3)CC2)cc1,833
22,COc1ccc(Nc2nccc(NCCNC(=O)Nc3cc(C)ccc3C)n2)cc1,1050
23,CC(=O)Nc1ccc(C(=O)Nc2ccc(-c3cccc(-c4nc5cc(F)ccc5[nH]4)c3)cc2)cn1,231
24,COc1cc2nc(N3CCC(CCCC4CCNCC4)CC3)nc(NCc3ccccn3)c2cc1OC,757
